Data reported in PubChem BioAssay AID1918994 (Molecular Pharmacology Branch, DTP, NCI, 2023).
One block for each molecule: values may come before it.

Tested on: 292921-168-R-J2-PDC complex spheroid growth
Experiment: Anticancer human tumor 292921-168-R-J2-PDC patient-derived pancreatic carcinoma cell line growth inhibition [AhR]
Settings: for IC50: curve of first compound; for viability, T/C: stronger effect = lower value
In short: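 Complex tumor spheroids co-cultured with HUVEC and human MSC stroma; AhR antagonists tested in combination with standard-of-care and investigational agents. Top concentration at or near clinical Cmax (else 10 microM), half-log dilutions; growth expressed as percent test/control.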

[1] = second compound 0.1 µM, first compound 0.0316 µM
[2] = second compound 0.1 µM, first compound 0.1 µM
[3] = second compound 0.1 µM, first compound 0.316 µM
[4] = second compound 0.1 µM, first compound 1 µM
[5] = second compound 0.1 µM, first compound 3.16 µM
[6] = second compound 0.1 µM, first compound 10 µM
[7] = second compound 0.316 µM, first compound 0.0316 µM
[8] = second compound 0.316 µM, first compound 0.1 µM
[9] = second compound 0.316 µM, first compound 0.316 µM
[10] = second compound 0.316 µM, first compound 1 µM
[11] = second compound 0.316 µM, first compound 3.16 µM
[12] = second compound 0.316 µM, first compound 10 µM
[13] = second compound 1 µM, first compound 0.0316 µM
[14] = second compound 1 µM, first compound 0.1 µM
[15] = second compound 1 µM, first compound 0.316 µM
[16] = second compound 1 µM, first compound 1 µM
[17] = second compound 1 µM, first compound 3.16 µM
[18] = second compound 1 µM, first compound 10 µM
[19] = second compound 3.16 µM, first compound 0.0316 µM
[20] = second compound 3.16 µM, first compound 0.1 µM
[21] = second compound 3.16 µM, first compound 0.316 µM
[22] = second compound 3.16 µM, first compound 1 µM
[23] = second compound 3.16 µM, first compound 3.16 µM
[24] = second compound 3.16 µM, first compound 10 µM
[25] = second compound 10 µM, first compound 0.0316 µM
[26] = second compound 10 µM, first compound 0.1 µM
[27] = second compound 10 µM, first compound 0.316 µM
[28] = second compound 10 µM, first compound 1 µM
[29] = second compound 10 µM, first compound 3.16 µM
[30] = second compound 10 µM, first compound 10 µM
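Further: spheroids exposed to compounds for seven days after three days of growth.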

IC50 (second compound 0.1 µM): 9.77 nM
IC50 (second compound 0.316 µM): 9.81 nM
IC50 (second compound 1 µM): 9.14 nM
IC50 (second compound 3.16 µM): 6.72 nM
IC50 (second compound 10 µM): < 0.949 nM
SMILES: CC(C)CC(NC(=O)C(Cc1ccccc1)NC(=O)c1cnccn1)B(O)O (stereo not given) + Cc1cncc(-c2nc(NCCc3c[nH]c4ccccc34)c3ncn(C(C)C)c3n2)c1
viability, T/C (second compound 0.1 µM, first compound 0.000949 µM): 92.8%
viability, T/C (second compound 0.1 µM, first compound 0.003 µM): 109%
viability, T/C (second compound 0.1 µM, first compound 0.00949 µM): 51.3%
viability, T/C (second compound 0.1 µM, first compound 0.03 µM): 3.12%
viability, T/C (second compound 0.1 µM, first compound 0.0949 µM): 0.7%
viability, T/C (second compound 0.1 µM, first compound 0.3 µM): 0.59%
viability, T/C (second compound 0.316 µM, first compound 0.000949 µM): 89.7%
viability, T/C (second compound 0.316 µM, first compound 0.003 µM): 99.3%
viability, T/C (second compound 0.316 µM, first compound 0.00949 µM): 51.5%
viability, T/C (second compound 0.316 µM, first compound 0.03 µM): 3.84%
viability, T/C (second compound 0.316 µM, first compound 0.0949 µM): 0.68%
viability, T/C (second compound 0.316 µM, first compound 0.3 µM): 0.47%
viability, T/C (second compound 1 µM, first compound 0.000949 µM): 82.3%
viability, T/C (second compound 1 µM, first compound 0.003 µM): 95.5%
viability, T/C (second compound 1 µM, first compound 0.00949 µM): 48.7%
viability, T/C (second compound 1 µM, first compound 0.03 µM): 3.35%
viability, T/C (second compound 1 µM, first compound 0.0949 µM): 0.56%
viability, T/C (second compound 1 µM, first compound 0.3 µM): 0.95%
viability, T/C (second compound 3.16 µM, first compound 0.000949 µM): 62.3%
viability, T/C (second compound 3.16 µM, first compound 0.003 µM): 77%
viability, T/C (second compound 3.16 µM, first compound 0.00949 µM): 41.6%
viability, T/C (second compound 3.16 µM, first compound 0.03 µM): 1.9%
viability, T/C (second compound 3.16 µM, first compound 0.0949 µM): 0.89%
viability, T/C (second compound 3.16 µM, first compound 0.3 µM): 1.05%
viability, T/C (second compound 10 µM, first compound 0.000949 µM): 43.5%
viability, T/C (second compound 10 µM, first compound 0.003 µM): 53.7%
viability, T/C (second compound 10 µM, first compound 0.00949 µM): 19.6%
viability, T/C (second compound 10 µM, first compound 0.03 µM): 0.58%
viability, T/C (second compound 10 µM, first compound 0.0949 µM): 0.63%
viability, T/C (second compound 10 µM, first compound 0.3 µM): 0.51%

IC50 (second compound 0.1 µM): < 31.6 nM
IC50 (second compound 0.316 µM): < 31.6 nM
IC50 (second compound 1 µM): < 31.6 nM
IC50 (second compound 3.16 µM): < 31.6 nM
IC50 (second compound 10 µM): < 31.6 nM
SMILES: COc1cc(Nc2ncc3c(n2)-c2ccc(Cl)cc2C(c2c(F)cccc2OC)=NC3)ccc1C(=O)O + Cc1cncc(-c2nc(NCCc3c[nH]c4ccccc34)c3ncn(C(C)C)c3n2)c1
viability, T/C [1]: 50.6%
viability, T/C [2]: 45%
viability, T/C [3]: 50%
viability, T/C [4]: 45.6%
viability, T/C [5]: 46.1%
viability, T/C [6]: 33.5%
viability, T/C [7]: 49.9%
viability, T/C [8]: 43.3%
viability, T/C [9]: 52%
viability, T/C [10]: 45.9%
viability, T/C [11]: 46.5%
viability, T/C [12]: 33.2%
viability, T/C [13]: 46.7%
viability, T/C [14]: 40.3%
viability, T/C [15]: 47.8%
viability, T/C [16]: 44.3%
viability, T/C [17]: 41.9%
viability, T/C [18]: 30.4%
viability, T/C [19]: 44.6%
viability, T/C [20]: 38.7%
viability, T/C [21]: 42.4%
viability, T/C [22]: 39.3%
viability, T/C [23]: 35.5%
viability, T/C [24]: 28%
viability, T/C [25]: 40.4%
viability, T/C [26]: 35%
viability, T/C [27]: 38.5%
viability, T/C [28]: 35.4%
viability, T/C [29]: 32.4%
viability, T/C [30]: 26.3%

IC50 (second compound 0.1 µM): > 100 nM
IC50 (second compound 0.316 µM): > 100 nM
IC50 (second compound 1 µM): > 100 nM
IC50 (second compound 3.16 µM): > 100 nM
IC50 (second compound 10 µM): 35.1 nM
SMILES: Cn1ncnc1C1c2n[nH]c(=O)c3cc(F)cc(c23)NC1c1ccc(F)cc1 (stereo not given) + Cc1cncc(-c2nc(NCCc3c[nH]c4ccccc34)c3ncn(C(C)C)c3n2)c1
viability, T/C (second compound 0.1 µM, first compound 0.000316 µM): 94.3%
viability, T/C (second compound 0.1 µM, first compound 0.001 µM): 96.7%
viability, T/C (second compound 0.1 µM, first compound 0.00316 µM): 86.5%
viability, T/C (second compound 0.1 µM, first compound 0.01 µM): 95.5%
viability, T/C [1]: 83.9%
viability, T/C [2]: 82.6%
viability, T/C (second compound 0.316 µM, first compound 0.000316 µM): 91.4%
viability, T/C (second compound 0.316 µM, first compound 0.001 µM): 102%
viability, T/C (second compound 0.316 µM, first compound 0.00316 µM): 83.6%
viability, T/C (second compound 0.316 µM, first compound 0.01 µM): 89.2%
viability, T/C [7]: 83.7%
viability, T/C [8]: 76.7%
viability, T/C (second compound 1 µM, first compound 0.000316 µM): 80.8%
viability, T/C (second compound 1 µM, first compound 0.001 µM): 87.3%
viability, T/C (second compound 1 µM, first compound 0.00316 µM): 85.6%
viability, T/C (second compound 1 µM, first compound 0.01 µM): 73.8%
viability, T/C [13]: 74.5%
viability, T/C [14]: 81.9%
viability, T/C (second compound 3.16 µM, first compound 0.000316 µM): 68.7%
viability, T/C (second compound 3.16 µM, first compound 0.001 µM): 71.4%
viability, T/C (second compound 3.16 µM, first compound 0.00316 µM): 72.3%
viability, T/C (second compound 3.16 µM, first compound 0.01 µM): 56.2%
viability, T/C [19]: 60.1%
viability, T/C [20]: 66.2%
viability, T/C (second compound 10 µM, first compound 0.000316 µM): 50.8%
viability, T/C (second compound 10 µM, first compound 0.001 µM): 54.4%
viability, T/C (second compound 10 µM, first compound 0.00316 µM): 55.5%
viability, T/C (second compound 10 µM, first compound 0.01 µM): 52.5%
viability, T/C [25]: 47.7%
viability, T/C [26]: 48%

IC50 (second compound 0.1 µM): 227 nM
IC50 (second compound 0.316 µM): 224 nM
IC50 (second compound 1 µM): 231 nM
IC50 (second compound 3.16 µM): 229 nM
IC50 (second compound 10 µM): 221 nM
SMILES: NS(=O)(=O)OCC1CC(n2ccc3c(NC4CCc5ccccc54)ncnc32)CC1O (stereo not given) + Cc1cncc(-c2nc(NCCc3c[nH]c4ccccc34)c3ncn(C(C)C)c3n2)c1
viability, T/C [1]: 136%
viability, T/C [2]: 111%
viability, T/C [3]: 25.1%
viability, T/C [4]: 6.77%
viability, T/C [5]: 5.38%
viability, T/C [6]: 5.4%
viability, T/C [7]: 133%
viability, T/C [8]: 108%
viability, T/C [9]: 25.1%
viability, T/C [10]: 7.33%
viability, T/C [11]: 5.81%
viability, T/C [12]: 5.63%
viability, T/C [13]: 117%
viability, T/C [14]: 104%
viability, T/C [15]: 30%
viability, T/C [16]: 6.44%
viability, T/C [17]: 6.99%
viability, T/C [18]: 7.06%
viability, T/C [19]: 111%
viability, T/C [20]: 93.7%
viability, T/C [21]: 33.1%
viability, T/C [22]: 8.82%
viability, T/C [23]: 7.53%
viability, T/C [24]: 6.05%
viability, T/C [25]: 69.9%
viability, T/C [26]: 76.7%
viability, T/C [27]: 39.5%
viability, T/C [28]: 13%
viability, T/C [29]: 9.88%
viability, T/C [30]: 7.28%

IC50 (second compound 0.1 µM): 374 nM
IC50 (second compound 0.316 µM): 460 nM
IC50 (second compound 1 µM): 280 nM
IC50 (second compound 3.16 µM): < 31.6 nM
IC50 (second compound 10 µM): < 31.6 nM
SMILES: O=C(C=Cc1cccc(S(=O)(=O)Nc2ccccc2)c1)NO + Cc1cncc(-c2nc(NCCc3c[nH]c4ccccc34)c3ncn(C(C)C)c3n2)c1
viability, T/C [1]: 76%
viability, T/C [2]: 59.6%
viability, T/C [3]: 46.1%
viability, T/C [4]: 41%
viability, T/C [5]: 36%
viability, T/C [6]: 3.84%
viability, T/C [7]: 69.9%
viability, T/C [8]: 61.4%
viability, T/C [9]: 50.9%
viability, T/C [10]: 39.9%
viability, T/C [11]: 33.4%
viability, T/C [12]: 3.8%
viability, T/C [13]: 55.3%
viability, T/C [14]: 59.7%
viability, T/C [15]: 49.6%
viability, T/C [16]: 35.4%
viability, T/C [17]: 30.5%
viability, T/C [18]: 4.08%
viability, T/C [19]: 46.3%
viability, T/C [20]: 46.6%
viability, T/C [21]: 46%
viability, T/C [22]: 31.9%
viability, T/C [23]: 31.7%
viability, T/C [24]: 4.11%
viability, T/C [25]: 32.9%
viability, T/C [26]: 34.2%
viability, T/C [27]: 30.1%
viability, T/C [28]: 29%
viability, T/C [29]: 26.6%
viability, T/C [30]: 6.63%
